Data from ChEMBL document CHEMBL5335865, “Macrocyclic Oxindole Peptide Epoxyketones-A Comparative Study of Macrocyclic Inhibitors of the 20S Proteasome” (ACS Med Chem Lett, 2024).
Activity calls are given as the source filed them.

How the values were obtained:
Chymotrypsin = Chymotrypsin (UniProt Q99895+P17538+P40313+Q6GPI1); assay: Inhibition of chymotrypsin (unknown origin) using Suc-LLVY-AMC as fluorogenic substrate at 130 uM measured every 20 seconds for 10 mins by fluorescence based assay; assay type: protein assay; details: Homo sapiens
[1] = target: Calpain-2 catalytic subunit (Homo sapiens) (UniProt P17655); assay: Inhibition of m-calpain (unknown origin) using Suc-LLVY-AMC as fluorogenic substrate at 130 uM measured every 20 seconds for 10 mins by fluorescence based assay
[2] = target: Cathepsin B (Homo sapiens) (UniProt P07858); assay: Inhibition of human liver cathepsin B using Cbz-Arg-Arg-AMC as fluorogenic substrate at 130 uM measured every 20 seconds for 10 mins by fluorescence based assay
[3] = target: T1, 20S proteasome (Homo sapiens) (UniProt P49721+P20618+P28074+P28062+P28065+P28072+P25786+P25787+P25788+P25789+P28066+P60900+O14818+Q8TAA3+P40306+A5LHX3+P49720+P28070+Q99436); assay: Inhibition of human 20S proteasome PGPH-like activity using Cbz-LLE-AMC as a fluorogenic substrate at 130 uM measured every 20 seconds for 10 mins by fluorescence based assay; assay type: protein-complex assay
[4] = target: T1, 20S proteasome (Homo sapiens); assay: Inhibition of human 20S proteasome trypsin-like activity using Ac-RLR-AMC as a fluorogenic substrate at 130 uM measured every 20 seconds for 10 mins by fluorescence based assay; assay type: protein-complex assay

Measured: inhibition

Chymotrypsin, sequence (P17538 whole entry, looked up): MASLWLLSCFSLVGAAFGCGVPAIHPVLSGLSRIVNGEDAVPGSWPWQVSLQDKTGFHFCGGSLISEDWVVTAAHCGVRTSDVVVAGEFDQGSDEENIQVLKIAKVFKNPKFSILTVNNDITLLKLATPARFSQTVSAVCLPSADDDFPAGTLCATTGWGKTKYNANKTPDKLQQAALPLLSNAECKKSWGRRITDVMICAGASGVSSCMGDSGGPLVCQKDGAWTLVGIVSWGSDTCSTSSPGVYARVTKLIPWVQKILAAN
Chymotrypsin, sequence (P40313 whole entry, looked up): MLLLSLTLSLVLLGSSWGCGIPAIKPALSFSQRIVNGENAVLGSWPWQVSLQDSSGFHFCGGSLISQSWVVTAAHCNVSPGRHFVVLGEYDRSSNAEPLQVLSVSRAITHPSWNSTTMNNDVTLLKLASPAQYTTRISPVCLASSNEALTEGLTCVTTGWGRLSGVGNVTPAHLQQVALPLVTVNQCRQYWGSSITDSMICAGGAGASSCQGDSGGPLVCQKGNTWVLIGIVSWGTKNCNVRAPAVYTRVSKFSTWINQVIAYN
Chymotrypsin, sequence (Q6GPI1 whole entry, looked up): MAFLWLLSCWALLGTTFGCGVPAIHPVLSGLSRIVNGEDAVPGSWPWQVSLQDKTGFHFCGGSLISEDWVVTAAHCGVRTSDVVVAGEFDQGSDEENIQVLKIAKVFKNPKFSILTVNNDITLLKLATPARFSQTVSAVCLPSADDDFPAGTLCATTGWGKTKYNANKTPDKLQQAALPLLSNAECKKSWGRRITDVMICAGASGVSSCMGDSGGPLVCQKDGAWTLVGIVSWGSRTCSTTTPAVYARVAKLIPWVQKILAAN
Chymotrypsin, sequence (Q99895 whole entry, looked up): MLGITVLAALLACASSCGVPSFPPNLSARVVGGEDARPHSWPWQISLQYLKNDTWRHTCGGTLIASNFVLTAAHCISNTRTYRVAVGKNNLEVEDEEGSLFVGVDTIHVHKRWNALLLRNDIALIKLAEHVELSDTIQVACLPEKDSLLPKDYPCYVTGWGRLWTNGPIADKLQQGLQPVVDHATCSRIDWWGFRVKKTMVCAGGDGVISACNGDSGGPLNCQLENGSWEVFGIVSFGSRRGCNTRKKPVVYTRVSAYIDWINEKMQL
Calpain-2 catalytic subunit (Homo sapiens), sequence (P17655 whole entry, looked up): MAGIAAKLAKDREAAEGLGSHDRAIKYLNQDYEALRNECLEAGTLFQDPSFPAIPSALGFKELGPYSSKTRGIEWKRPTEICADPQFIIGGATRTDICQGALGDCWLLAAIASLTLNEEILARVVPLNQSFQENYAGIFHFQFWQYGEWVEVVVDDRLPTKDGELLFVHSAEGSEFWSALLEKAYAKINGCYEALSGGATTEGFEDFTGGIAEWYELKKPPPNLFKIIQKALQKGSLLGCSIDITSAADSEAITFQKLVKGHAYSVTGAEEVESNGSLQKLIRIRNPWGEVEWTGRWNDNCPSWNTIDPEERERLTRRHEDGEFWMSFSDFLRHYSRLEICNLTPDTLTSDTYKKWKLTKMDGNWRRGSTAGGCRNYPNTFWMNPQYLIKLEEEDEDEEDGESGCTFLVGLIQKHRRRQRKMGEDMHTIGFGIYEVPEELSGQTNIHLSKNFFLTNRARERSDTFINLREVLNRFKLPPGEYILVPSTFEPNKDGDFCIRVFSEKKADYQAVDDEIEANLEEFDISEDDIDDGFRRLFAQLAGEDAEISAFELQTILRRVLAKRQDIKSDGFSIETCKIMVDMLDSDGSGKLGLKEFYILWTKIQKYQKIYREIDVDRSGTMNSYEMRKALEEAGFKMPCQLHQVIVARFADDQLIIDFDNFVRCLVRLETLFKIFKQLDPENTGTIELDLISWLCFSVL

CC(=O)N[C@H]1Cc2ccc([N+](=O)[O-])c(c2)Oc2ccc3c(c2)C(C[C@@H](C(=O)N[C@@H](CC(C)C)C(N)=O)NC(=O)[C@H](CC(C)C)NC1=O)C(=O)N3 (some centres undefined)
not listed: [4]
inactive: all other assays above

CC(=O)N[C@H]1Cc2ccc([N+](=O)[O-])c(c2)Oc2ccc(cc2)C[C@@H](C(=O)N[C@@H](CC(C)C)C(=O)[C@@]2(C)CO2)NC(=O)[C@H](CC(C)C)NC1=O
inactive: all assays above

CC(=O)N[C@@H](Cc1ccc([N+](=O)[O-])c(F)c1)C(=O)N[C@@H](CC(C)C)C(=O)N[C@@H](CC1C(=O)Nc2ccc(O)cc21)C(=O)N[C@@H](CC(C)C)C(=O)[C@@]1(C)CO1 (some centres undefined)
inactive: all assays above

CC(C)C[C@@H](C=O)NC(=O)[C@@H]1Cc2ccc(cc2)Oc2cc(ccc2[N+](=O)[O-])C[C@H](NC(=O)OCc2ccccc2)C(=O)N[C@@H](CC(C)C)C(=O)N1
inactive: Chymotrypsin | [4]

CC(=O)N[C@H]1Cc2ccc([N+](=O)[O-])c(c2)Oc2ccc3c(c2)C(C[C@@H](C(=O)N[C@@H](CC(C)C)C(=O)[C@@]2(C)CO2)NC(=O)[C@H](CC(C)C)NC1=O)C(=O)N3 (some centres undefined)
not listed: [3]
inactive: all other assays above

CC(=O)N[C@H]1Cc2ccc([N+](=O)[O-])c(c2)Oc2ccc(cc2)CC[C@@H](C(=O)N[C@@H](CC(C)C)C(=O)[C@@]2(C)CO2)NC(=O)[C@H](CC(C)C)NC1=O
inactive: all assays above

CC(C)C[C@H](NC(=O)[C@H](CCc1ccccc1)NC(=O)CN1CCOCC1)C(=O)N[C@@H](Cc1ccccc1)C(=O)N[C@@H](CC(C)C)C(=O)[C@@]1(C)CO1
not listed: [3]
inactive: all other assays above
